Experimental data from patent US20240261425A1, “CONJUGATE AND THE PREPARING METHOD AND USE THEREOF” (Nanjing University, priority 2021, published 2024).

Legend:
[1] = Stability of linker-modified sfGFP in buffer comprising GSH (thiol exchange, mass spectrometry); format: physicochemical; conditions: 37° C., different times
Procedure: GSH (0.8 μL, 100 mM) and PBS (20 μL, pH=8.0, 50 mM) were added to a solution of GFP-Linker (20 μL, 40 μM, in PBS) at 37° C. for 48 h. (FIG. 20)
The stability of a sfGFP modified PhESF as a linker was verified, using the linker 5 and 4 with higher reactivity as controls. After sfGFP had been modified, it was added to the buffer comprising GSH, and was placed at 37° C. for different time, and a mass spectrometry was performed.

sfGFP-TEV = assay: Modification of sfGFP-TEV by derivatives of the reagent 1; conditions: 2 h
Procedure: When the benzene ring of the Reagent 1 was modified with different substituents (Michael acceptor 1-1 to 1-4), the difference of different substituents on the addition reaction (for example, the addition activity) was investigated (Table 5). Michael acceptor 1-1 to 1-4 were reacted with sfGFP-TEV.
MA 2 or MA 2 analogues (i.e. Compounds 1a, 1a-1, 1b, 1b-1) (1 μL, 20 mM in DMSO) and PBS (15 μL, pH=7.4, 50 mM) were added to a solution of GFP-TEV (4 μL, 250 μM in HEPES buffer). After incubation at 37° C. for 2 h, the solution was desalted to give the product before LC-MS analysis.

Structure (SMILES) | thiol exchange [1] | Addition number (sfGFP-TEV) | Conv. (%) (sfGFP-TEV)
O=S(=O)(F)/C=C/c1ccccc1 [Michael acceptor 1] | did not have a thiol exchange | 2 | >99%
CN1C(=O)C=CC1=O [linker 5, reference compound] | obviously undergo thiol exchange | – | –
